Measurements from ChEMBL document CHEMBL3751822, “C1C2-linker substituted 1,5-naphthyridine analogues of oxabicyclooctane-linked NBTIs as broad-spectrum antibacterial agents (part 7)” (Medchemcomm, 2015).
pIC50: −log10 of the molar value. Converted amounts (≈) assume the structure as drawn.

How the values were obtained:
Streptococcus pneumoniae = test: Antibacterial activity against Streptococcus pneumoniae IID553 by micro-broth dilution method; type: functional
Pseudomonas aeruginosa = test: Antibacterial activity against Pseudomonas aeruginosa PAO1 by micro-broth dilution method; type: functional
Acinetobacter baumannii = test: Antibacterial activity against Acinetobacter baumannii IID876 by micro-broth dilution method; type: functional
Staphylococcus aureus [1] = test: Antibacterial activity against Staphylococcus aureus Smith by micro-broth dilution method; type: functional
Escherichia coli = test: Antibacterial activity against Escherichia coli ATCC 25922 by micro-broth dilution method; type: functional
Enterococcus faecium = test: Antibacterial activity against Enterococcus faecium VanA by micro-broth dilution method; type: functional
Staphylococcus aureus [2] = test: Antibacterial activity against methicillin resistant Staphylococcus aureus OIT971 by micro-broth dilution method; type: functional
[3] = target: Voltage-gated inwardly rectifying potassium channel KCNH2 (Homo sapiens, UniProt Q12809); test: Displacement of MK499 from human ERG
Staphylococcus aureus [4] = test: Ratio of MIC for quinolone-resistant Staphylococcus aureus MS5935 to MIC for quinolone-sensitive Staphylococcus aureus MS5935; type: functional
[5] = Streptococcus pneumoniae, IID553, read-out: MIC
[6] = Pseudomonas aeruginosa, PAO1, read-out: MIC
[7] = Acinetobacter baumannii, IID876, read-out: MIC
[8] = Staphylococcus aureus, Smith, read-out: MIC
[9] = Escherichia coli, ATCC 25922, read-out: MIC
[10] = Enterococcus faecium, VanA, read-out: MIC
[11] = Staphylococcus aureus, OIT971, read-out: MIC

Sequence of Voltage-gated inwardly rectifying potassium channel KCNH2 (Q12809 whole entry): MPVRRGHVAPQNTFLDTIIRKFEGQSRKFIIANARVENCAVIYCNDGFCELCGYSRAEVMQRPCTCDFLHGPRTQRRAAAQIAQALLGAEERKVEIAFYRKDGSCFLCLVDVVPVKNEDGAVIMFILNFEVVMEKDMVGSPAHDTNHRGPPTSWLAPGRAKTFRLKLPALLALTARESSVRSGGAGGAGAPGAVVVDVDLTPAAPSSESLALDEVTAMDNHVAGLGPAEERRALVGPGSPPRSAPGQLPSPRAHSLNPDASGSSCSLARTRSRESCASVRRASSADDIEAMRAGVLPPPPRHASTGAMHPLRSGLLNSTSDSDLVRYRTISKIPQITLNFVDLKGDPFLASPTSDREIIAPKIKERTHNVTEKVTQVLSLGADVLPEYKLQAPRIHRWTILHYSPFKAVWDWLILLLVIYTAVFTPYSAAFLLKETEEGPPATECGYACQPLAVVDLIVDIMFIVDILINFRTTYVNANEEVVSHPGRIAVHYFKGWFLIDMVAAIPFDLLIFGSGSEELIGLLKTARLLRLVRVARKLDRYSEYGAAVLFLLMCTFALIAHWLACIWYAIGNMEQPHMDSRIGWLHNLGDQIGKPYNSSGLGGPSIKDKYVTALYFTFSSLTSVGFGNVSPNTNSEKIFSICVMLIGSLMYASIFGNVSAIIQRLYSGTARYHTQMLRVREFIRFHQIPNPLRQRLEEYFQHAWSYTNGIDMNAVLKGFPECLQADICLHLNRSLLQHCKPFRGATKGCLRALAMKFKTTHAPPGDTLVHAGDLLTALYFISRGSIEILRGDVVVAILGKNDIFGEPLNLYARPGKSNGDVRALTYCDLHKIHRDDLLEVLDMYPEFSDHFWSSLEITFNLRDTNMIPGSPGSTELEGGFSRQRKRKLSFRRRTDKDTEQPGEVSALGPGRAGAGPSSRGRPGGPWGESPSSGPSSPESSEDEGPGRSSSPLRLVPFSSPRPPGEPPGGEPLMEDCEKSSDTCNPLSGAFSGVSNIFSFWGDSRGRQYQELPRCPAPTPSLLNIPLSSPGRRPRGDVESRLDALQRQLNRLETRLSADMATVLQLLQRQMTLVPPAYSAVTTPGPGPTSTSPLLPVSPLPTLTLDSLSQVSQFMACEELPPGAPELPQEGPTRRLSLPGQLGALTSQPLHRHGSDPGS

SMILES	MIC (Streptococcus pneumoniae; [5])	MIC (Pseudomonas aeruginosa; [6])	MIC (Acinetobacter baumannii; [7])	MIC (Staphylococcus aureus [1]; [8])	MIC (Escherichia coli; [9])	MIC (Enterococcus faecium; [10])	MIC (Staphylococcus aureus [2]; [11])	pIC50 [3]	Ratio (Staphylococcus aureus [4])	MIC (Streptococcus pneumoniae)	MIC (Pseudomonas aeruginosa)	MIC (Acinetobacter baumannii)	MIC (Staphylococcus aureus [1])	MIC (Escherichia coli)	MIC (Enterococcus faecium)	MIC (Staphylococcus aureus [2])
CO/N=C(/Cc1c(F)cnc2ccc(OC)nc12)C12CCC(NCc3ccc4c(n3)NC(=O)CO4)(CC1)CO2	16 µg/mL (≈ 29.8 µM)	16 µg/mL (≈ 29.8 µM)	16 µg/mL (≈ 29.8 µM)	16 µg/mL (≈ 29.8 µM)	16 µg/mL (≈ 29.8 µM)	16 µg/mL (≈ 29.8 µM)	16 µg/mL (≈ 29.8 µM)	5.60	<4	–	–	–	–	–	–	–
COc1ccc2ncc(F)c(C(CO)CC34CCC(NCc5ccc6c(n5)NC(=O)CO6)(CC3)CO4)c2n1 (racemic)	2 µg/mL (≈ 3.82 µM)	32 µg/mL (≈ 61.1 µM)	16 µg/mL (≈ 30.6 µM)	1 µg/mL (≈ 1.91 µM)	32 µg/mL (≈ 61.1 µM)	16 µg/mL (≈ 30.6 µM)	1 µg/mL (≈ 1.91 µM)	–	–	–	–	–	–	–	–	–
CCOC(=O)C(CC12CCC(NCc3ccc4c(n3)NC(=O)CO4)(CC1)CO2)c1c(F)cnc2ccc(OC)nc12 (racemic)	8 µg/mL (≈ 14.1 µM)	32 µg/mL (≈ 56.6 µM)	32 µg/mL (≈ 56.6 µM)	2 µg/mL (≈ 3.54 µM)	32 µg/mL (≈ 56.6 µM)	32 µg/mL (≈ 56.6 µM)	2 µg/mL (≈ 3.54 µM)	–	–	–	–	–	–	–	–	–
COc1ccc2ncc(F)c(C(CC34CCC(NCc5ccc6c(n5)NC(=O)CO6)(CC3)CO4)C(=O)O)c2n1 (racemic)	4 µg/mL (≈ 7.44 µM)	32 µg/mL (≈ 59.5 µM)	32 µg/mL (≈ 59.5 µM)	1 µg/mL (≈ 1.86 µM)	32 µg/mL (≈ 59.5 µM)	32 µg/mL (≈ 59.5 µM)	1 µg/mL (≈ 1.86 µM)	6.00	<4	–	–	–	–	–	–	–
COc1ccc2ncc(F)c([C@H]3OC(=O)O[C@@H]3C34CCC(NCc5ccc6c(n5)NC(=O)CO6)(CC3)CO4)c2n1 (single isomer, unassigned; (+))	16 µg/mL (≈ 29 µM)	16 µg/mL (≈ 29 µM)	16 µg/mL (≈ 29 µM)	2 µg/mL (≈ 3.63 µM)	16 µg/mL (≈ 29 µM)	16 µg/mL (≈ 29 µM)	2 µg/mL (≈ 3.63 µM)	4.95	<4	–	–	–	–	–	–	–
COc1ccc2ncc(F)c(CC(NOC(C)=O)C34CCC(NCc5ccc6c(n5)NC(=O)CO6)(CC3)CO4)c2n1 (racemic)	16 µg/mL (≈ 28.2 µM)	32 µg/mL (≈ 56.5 µM)	32 µg/mL (≈ 56.5 µM)	2 µg/mL (≈ 3.53 µM)	32 µg/mL (≈ 56.5 µM)	32 µg/mL (≈ 56.5 µM)	2 µg/mL (≈ 3.53 µM)	–	–	–	–	–	–	–	–	–
COc1ccc2ncc(F)c(CCC34CCC(NCc5ccc6c(n5)NC(=O)CO6)(CC3)CO4)c2n1	–	–	–	–	–	–	–	–	2	–	–	–	–	–	–	–
COc1ccc2ncc(F)c(C(C)(O)CC34CCC(NCc5ccc6c(n5)NC(=O)CO6)(CC3)CO4)c2n1 (racemic)	4 µg/mL (≈ 7.64 µM)	32 µg/mL (≈ 61.1 µM)	32 µg/mL (≈ 61.1 µM)	1 µg/mL (≈ 1.91 µM)	32 µg/mL (≈ 61.1 µM)	16 µg/mL (≈ 30.6 µM)	1 µg/mL (≈ 1.91 µM)	–	–	–	–	–	–	–	–	–
COc1ccc2ncc(F)c(CC(O)(C(F)(F)F)C34CCC(NCc5ccc6c(n5)NC(=O)CO6)(CC3)CO4)c2n1 (racemic)	4 µg/mL (≈ 6.93 µM)	32 µg/mL (≈ 55.4 µM)	32 µg/mL (≈ 55.4 µM)	0.5 µg/mL (≈ 0.866 µM)	32 µg/mL (≈ 55.4 µM)	32 µg/mL (≈ 55.4 µM)	0.5 µg/mL (≈ 0.866 µM)	–	–	–	–	–	–	–	–	–
COc1ccc2ncc(F)c(CC(OCCO)C34CCC(NCc5ccc6c(n5)NC(=O)CO6)(CC3)CO4)c2n1 (racemic)	8 µg/mL (≈ 14.5 µM)	32 µg/mL (≈ 57.8 µM)	32 µg/mL (≈ 57.8 µM)	2 µg/mL (≈ 3.61 µM)	32 µg/mL (≈ 57.8 µM)	32 µg/mL (≈ 57.8 µM)	2 µg/mL (≈ 3.61 µM)	–	–	–	–	–	–	–	–	–
COc1ccc2ncc(F)c(CC(N)C34CCC(NCc5ccc6c(n5)NC(=O)CO6)(CC3)CO4)c2n1 (single isomer, unassigned; (-))	–	–	–	–	–	–	–	–	–	2 µg/mL (≈ 3.93 µM)	8 µg/mL (≈ 15.7 µM)	0.25 µg/mL (≈ 0.492 µM)	0.13 µg/mL (≈ 0.256 µM)	1 µg/mL (≈ 1.97 µM)	4 µg/mL (≈ 7.87 µM)	0.13 µg/mL (≈ 0.256 µM)
COc1ccc2ncc(F)c(CC(F)C34CCC(NCc5ccc6c(n5)NC(=O)CO6)(CC3)CO4)c2n1 (racemic)	1 µg/mL (≈ 1.95 µM)	8 µg/mL (≈ 15.6 µM)	8 µg/mL (≈ 15.6 µM)	0.25 µg/mL (≈ 0.489 µM)	8 µg/mL (≈ 15.6 µM)	8 µg/mL (≈ 15.6 µM)	0.25 µg/mL (≈ 0.489 µM)	–	–	–	–	–	–	–	–	–
